{"source": "ChEMBL document CHEMBL1201862", "about": "“PubChem BioAssay data set” (2004)", "assay_in_all_cases": "inhibition of tumour cell growth, NCI panel, 48 h", "key": {"786-0": {"tested_on": "786-0"}, "ACHN": {"tested_on": "ACHN"}, "DU-145": {"tested_on": "DU-145"}, "HCC 2998": {"tested_on": "HCC 2998"}, "HCT-15": {"tested_on": "HCT-15"}, "HOP-62": {"tested_on": "HOP-62"}, "M14": {"tested_on": "M14"}, "MCF7": {"tested_on": "MCF7"}, "MOLT-4": {"tested_on": "MOLT-4"}, "NCI-H522": {"tested_on": "NCI-H522"}, "NCI/ADR-RES": {"tested_on": "NCI/ADR-RES"}, "OVCAR-3": {"tested_on": "OVCAR-3"}, "OVCAR-8": {"tested_on": "OVCAR-8"}, "RXF 393": {"tested_on": "RXF 393"}, "SF-539": {"tested_on": "SF-539"}, "T47D": {"tested_on": "T47D"}, "TK-10": {"tested_on": "TK-10"}, "U-251": {"tested_on": "U-251"}, "UACC-257": {"tested_on": "UACC-257"}, "UO-31": {"tested_on": "UO-31"}}, "note": "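In this assay, cells in 96-well plates receive the compound at five concentrations for 48 hours. Endpoints are linearly interpolated between the surrounding concentrations. GI50 is the concentration that inhibits growth by half.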 Calls of active or inactive are those of the source. Rule as the data show it: active = GI50 up to about 1.1 µM and inactive = higher.", "data": [{"smiles": "CC(C)=CC(O)C/C(C)=C/CC/C(C)=C/CCC1(C)C(CCCO)/C(=C(/C)C=O)CCC1(C)O", "note": "(stereo not given)", "values": [{"measurement": "GI50", "setting": "786-0", "value": "35.7 µM (inactive)"}, {"measurement": "GI50", "setting": "ACHN", "value": "20.6 µM (inactive)"}, {"measurement": "GI50", "setting": "DU-145", "value": "57 µM (inactive)"}, {"measurement": "GI50", "setting": "HCC 2998", "value": "26.4 µM (inactive)"}, {"measurement": "GI50", "setting": "HCT-15", "value": 46.3, "unit": "µM"}, {"measurement": "GI50", "setting": "HOP-62", "value": "25.9 µM (inactive)"}, {"measurement": "GI50", "setting": "M14", "value": "26.1 µM (inactive)"}, {"measurement": "GI50", "setting": "MCF7", "value": "37.4 µM (inactive)"}, {"measurement": "GI50", "setting": "MOLT-4", "value": "24.7 µM (inactive)"}, {"measurement": "GI50", "setting": "NCI-H522", "value": "39.7 µM (inactive)"}, {"measurement": "GI50", "setting": "NCI/ADR-RES", "value": "65.3 µM (inactive)"}, {"measurement": "GI50", "setting": "OVCAR-3", "value": "86.1 µM (inactive)"}, {"measurement": "GI50", "setting": "OVCAR-8", "value": "47 µM (inactive)"}, {"measurement": "GI50", "setting": "RXF 393", "value": "25.7 µM (inactive)"}, {"measurement": "GI50", "setting": "SF-539", "value": "25.1 µM (inactive)"}, {"measurement": "GI50", "setting": "T47D", "value": "61.9 µM (inactive)"}, {"measurement": "GI50", "setting": "TK-10", "value": "30.3 µM (inactive)"}, {"measurement": "GI50", "setting": "U-251", "value": "34 µM (inactive)"}, {"measurement": "GI50", "setting": "UACC-257", "value": "31.5 µM (inactive)"}, {"measurement": "GI50", "setting": "UO-31", "value": "33.7 µM (inactive)"}]}, {"smiles": "Cn1c(-c2c(C3=CC(=O)N(c4ccccc4)C3=O)c3ccccc3n2C)cc2ccccc21", "values": [{"measurement": "GI50", "setting": "786-0", "value": "> 100 µM (inactive)"}, {"measurement": "GI50", "setting": "ACHN", "value": "> 100 µM (inactive)"}, {"measurement": "GI50", "setting": "DU-145", "value": "> 100 µM (inactive)"}, {"measurement": "GI50", "setting": "HCC 2998", "value": "> 100 µM (inactive)"}, {"measurement": "GI50", "setting": "HCT-15", "value": "> 100", "unit": "µM"}, {"measurement": "GI50", "setting": "HOP-62", "value": "> 100 µM (inactive)"}, {"measurement": "GI50", "setting": "M14", "value": "> 100 µM (inactive)"}, {"measurement": "GI50", "setting": "MCF7", "value": "> 100 µM (inactive)"}, {"measurement": "GI50", "setting": "MOLT-4", "value": "58.7 µM (inactive)"}, {"measurement": "GI50", "setting": "NCI-H522", "value": "50 µM (inactive)"}, {"measurement": "GI50", "setting": "NCI/ADR-RES", "value": "> 100 µM (inactive)"}, {"measurement": "GI50", "setting": "OVCAR-3", "value": "> 100 µM (inactive)"}, {"measurement": "GI50", "setting": "OVCAR-8", "value": "> 100 µM (inactive)"}, {"measurement": "GI50", "setting": "RXF 393", "value": "4.4 µM (inactive)"}, {"measurement": "GI50", "setting": "SF-539", "value": "> 100 µM (inactive)"}, {"measurement": "GI50", "setting": "T47D", "value": "> 100 µM (inactive)"}, {"measurement": "GI50", "setting": "TK-10", "value": "> 100 µM (inactive)"}, {"measurement": "GI50", "setting": "U-251", "value": "> 100 µM (inactive)"}, {"measurement": "GI50", "setting": "UACC-257", "value": "> 100 µM (inactive)"}, {"measurement": "GI50", "setting": "UO-31", "value": "> 100 µM (inactive)"}]}, {"smiles": "COC1/C=C/C(C)C(O)CC(O)/C=C/C(C)C(C(C)C(OC)C(C)CCC(=O)C(C)C(C/C=C/N(C)C=O)OC)OC(=O)/C=C/C=C(\\C)CC(OC)CC2=CC(=O)O[C@@H](C(C)C(OC)C1)[C@H]2O", "note": "(stereo not given in full)", "values": [{"measurement": "GI50", "setting": "786-0", "value": "< 0.005 µM (active)"}, {"measurement": "GI50", "setting": "ACHN", "value": "< 0.005 µM (active)"}, {"measurement": "GI50", "setting": "DU-145", "value": "0.0221 µM (active)"}, {"measurement": "GI50", "setting": "HCC 2998", "value": "< 0.005 µM (active)"}, {"measurement": "GI50", "setting": "HCT-15", "value": "< 0.005", "unit": "µM"}, {"measurement": "GI50", "setting": "HOP-62", "value": "0.00515 µM (active)"}, {"measurement": "GI50", "setting": "M14", "value": "< 0.005 µM (active)"}, {"measurement": "GI50", "setting": "MCF7", "value": "0.00522 µM (active)"}, {"measurement": "GI50", "setting": "MOLT-4", "value": "0.0163 µM (active)"}, {"measurement": "GI50", "setting": "NCI-H522", "value": "< 0.005 µM (active)"}, {"measurement": "GI50", "setting": "NCI/ADR-RES", "value": "0.00656 µM (active)"}, {"measurement": "GI50", "setting": "OVCAR-3", "value": "< 0.005 µM (active)"}, {"measurement": "GI50", "setting": "OVCAR-8", "value": "< 0.005 µM (active)"}, {"measurement": "GI50", "setting": "RXF 393", "value": "< 0.005 µM (active)"}, {"measurement": "GI50", "setting": "SF-539", "value": "< 0.005 µM (active)"}, {"measurement": "GI50", "setting": "T47D", "value": "0.0219 µM (active)"}, {"measurement": "GI50", "setting": "TK-10", "value": "0.00542 µM (active)"}, {"measurement": "GI50", "setting": "U-251", "value": "< 0.005 µM (active)"}, {"measurement": "GI50", "setting": "UACC-257", "value": "0.0103 µM (active)"}, {"measurement": "GI50", "setting": "UO-31", "value": "0.00769 µM (active)"}]}, {"smiles": "CN(C)c1n/c(=N/Cc2ccncc2)ss1", "values": [{"measurement": "GI50", "setting": "786-0", "value": "17.4 µM (inactive)"}, {"measurement": "GI50", "setting": "ACHN", "value": "13.5 µM (inactive)"}, {"measurement": "GI50", "setting": "DU-145", "value": "> 10 µM (inactive)"}, {"measurement": "GI50", "setting": "HCC 2998", "value": "> 52.6 µM (inactive)"}, {"measurement": "GI50", "setting": "HCT-15", "value": 45, "unit": "µM"}, {"measurement": "GI50", "setting": "HOP-62", "value": "> 10 µM (inactive)"}, {"measurement": "GI50", "setting": "M14", "value": "16.8 µM (inactive)"}, {"measurement": "GI50", "setting": "MCF7", "value": "61 µM (inactive)"}, {"measurement": "GI50", "setting": "MOLT-4", "value": "20.3 µM (inactive)"}, {"measurement": "GI50", "setting": "NCI-H522", "value": "16.1 µM (inactive)"}, {"measurement": "GI50", "setting": "NCI/ADR-RES", "value": "> 72.8 µM (inactive)"}, {"measurement": "GI50", "setting": "OVCAR-3", "value": "> 48.6 µM (inactive)"}, {"measurement": "GI50", "setting": "OVCAR-8", "value": "17.6 µM (inactive)"}, {"measurement": "GI50", "setting": "RXF 393", "value": "31.8 µM (inactive)"}, {"measurement": "GI50", "setting": "SF-539", "value": "> 46.9 µM (inactive)"}, {"measurement": "GI50", "setting": "T47D", "value": "10.7 µM (inactive)"}, {"measurement": "GI50", "setting": "TK-10", "value": "> 66.2 µM (inactive)"}, {"measurement": "GI50", "setting": "U-251", "value": "17.9 µM (inactive)"}, {"measurement": "GI50", "setting": "UACC-257", "value": "> 39.7 µM (inactive)"}, {"measurement": "GI50", "setting": "UO-31", "value": "> 50 µM (inactive)"}]}, {"smiles": "C/C(=C\\CSCC(N)C(=O)O)CC/C=C(\\C)CNc1ccccc1", "note": "(stereo not given)", "values": [{"measurement": "GI50", "setting": "786-0", "value": "> 100 µM (inactive)"}, {"measurement": "GI50", "setting": "ACHN", "value": "> 100 µM (inactive)"}, {"measurement": "GI50", "setting": "DU-145", "value": "> 100 µM (inactive)"}, {"measurement": "GI50", "setting": "HCC 2998", "value": "> 100 µM (inactive)"}, {"measurement": "GI50", "setting": "HCT-15", "value": "> 100", "unit": "µM"}, {"measurement": "GI50", "setting": "HOP-62", "value": "> 100 µM (inactive)"}, {"measurement": "GI50", "setting": "M14", "value": "> 100 µM (inactive)"}, {"measurement": "GI50", "setting": "MCF7", "value": "> 100 µM (inactive)"}, {"measurement": "GI50", "setting": "MOLT-4", "value": "> 100 µM (inactive)"}, {"measurement": "GI50", "setting": "NCI-H522", "value": "49 µM (inactive)"}, {"measurement": "GI50", "setting": "NCI/ADR-RES", "value": "> 100 µM (inactive)"}, {"measurement": "GI50", "setting": "OVCAR-3", "value": "> 100 µM (inactive)"}, {"measurement": "GI50", "setting": "OVCAR-8", "value": "> 100 µM (inactive)"}, {"measurement": "GI50", "setting": "RXF 393", "value": "> 100 µM (inactive)"}, {"measurement": "GI50", "setting": "SF-539", "value": "> 100 µM (inactive)"}, {"measurement": "GI50", "setting": "T47D", "value": "> 100 µM (inactive)"}, {"measurement": "GI50", "setting": "TK-10", "value": "> 100 µM (inactive)"}, {"measurement": "GI50", "setting": "U-251", "value": "> 100 µM (inactive)"}, {"measurement": "GI50", "setting": "UACC-257", "value": "> 100 µM (inactive)"}, {"measurement": "GI50", "setting": "UO-31", "value": "82 µM (inactive)"}]}]}
